Assay results published in patent US20210268070A1, “Use of Immunomodulators to Control Infection and Stimulate Healing in Normal and Diabetic Wounds” (priority 2018, published 2021).

Assays:
P. aeruginosa PA103 [1] = assay: Implant model of infection with PA103; assay type: in vivo; conditions: prophylaxis tobramycin 3.5 mg/kg i.p. 1 h before implantation and infection, FIG. 2A
Method: (§1) The implant model of infection in C57B mice was used for 10^6 PA103 (FIG. 2A) or 10^6 USA300 MRSA (FIG. 2C). The wound model of infection was used for 10^6 PA103 in C57BL mice (FIG. 2B) or diabetic db/db mice (FIG. 2D). Infection was carried out at the time of surgery by adding bacteria directly to the surgical sites. Immunomodulators, namely, LPS (10 ng or 100 ng), fMLP (10 ng or 100 ng), CCL3 (1 μg) were added topically at the surgical sites at the time of surgery & infection. GM-CSF (10 μg/kg), tobramycin (Tob at 3.5 mg/kg), and vancomycin (40 mg/kg) were added systemically by i.p. injection 1 h before surgical implantation and infection. Infection levels were determined 24 h following infection (N>4 animals/group; NS=not significant, * p<0.01, ** p<0.001, ***p<0.0001 One-way ANOVA).
(§2) We assessed these immunomodulators for their ability to control wound and/or implant SS's in normal (C57BL/6) or diabetic (db/db) mice. We acknowledge that diabetic individuals are not as immunocompromised as other immunocompromised patient groups. […] All immunomodulators were added locally at the surgical sites at the time of infection, except GM-CSF (10 μg/kg) which was administered systemically by i.p. injection 1 h prior to surgery per its FDA-approved route of delivery. […] CCL3 and GM-CSF are also tested using the implant model of infection. Here, we tested CCL3 and GM-CSF in the wound model of infection in C57B mice.
(§3) Implant surgery and wound surgery and surgical site infection are performed according to the following method. On the day of surgery, all mice are anesthetized by an intraperitoneal injection of a ketamine/xylazine mixture (90 mg/kg ketamine+5 mg/kg xylazine for mice). The back of the animals is shaved using an electric shave and scrubbed with alcohol swabs 3 times, a topical antiseptic solution (Hibiclens; chlorhexidine gluconate) is applied to the skin. The surgical procedures are performed with sterile instruments, sterile surgical gloves, and aseptic techniques as follows. […]

P. aeruginosa PA103 [2] = assay: Wound model of infection with PA103 in normal (C57BL) mice; assay type: in vivo
Method: as §1
(§4) (15A) C57BL/6 mice received 40 mg/kg prophylaxis (Sys) vancomycin (Vanc) or 3.5 mg/kg tobramycin (Tobra) by i.p. injection. (15A) 1 h after antibiotic administration, 106 CFU of USA300 was added to implant after insertion into facia (Implant Model). (15B) 1 h after antibiotic administration, 10^6CFU of USA300 or 106CFU PA103 (Pa) were added full-thickness wounds in of C57BL/6 (Wound Model). Infection levels at implant surgical site (Tissue & Implant) or a distant site (Spleen), or wound tissues were assessed 24 h following infection. (N>4 animals/group, * p<0.01, ***p<0.0001, One-way ANOVA).
as §2
Implant surgery and wound surgery and surgical site infection are performed according to the following method. On the day of surgery, all mice are anesthetized by an intraperitoneal injection of a ketamine/xylazine mixture (90 mg/kg ketamine+5 mg/kg xylazine for mice). The back of the animals is shaved using an electric shave and scrubbed with alcohol swabs 3 times, a topical antiseptic solution (Hibiclens; chlorhexidine gluconate) is applied to the skin. The surgical procedures are performed with sterile instruments, sterile surgical gloves, and aseptic techniques as follows. For wound surgical procedure, a sterile biopsy punch (5-7 mm diameter) is used to punch through the full thickness of the back skin below the shoulder blades. Four 5-7 mm skin wounds are made on the back of each mouse. Wounds placed in this area cannot be reached by the animals and therefore are protected from self-licking. For implant surgery, a 4-mm long lateral skin incision is made on the upper back, and the skin is retracted. The space above the muscle is opened using blunt dissection with fine forceps, to create a rostral fascia indentation. Then, immunomodulators at indicated concentrations (in a 20 μL volume) or PBS control are injected into the fascia indentation.

USA300 MRSA = assay: Implant model of infection with USA300 MRSA; assay type: in vivo
Method: as §1, §4, §2
as §3, with “follows. For wound surgical procedure, a sterile biopsy punch (5-7 mm diameter) is used to punch through the full thickness of the back skin below the shoulder blades.” for “follows.”

leukocytes = assay: Leukocyte migration (H&E staining) and activation (MPO ELISA) in normal wound; assay type: in vivo, C57B mice; conditions: compared to PBS, FIGS. 10A-10D
From the text: FIGS. 10A-10D illustrate that immunomodulatory treatment enhances leukocyte migration and neutrophil activation in a normal wound. (10A, 10B—CCL3, 10C—LPS, fMLF, 10D—GM-CSF), N=4; Significance determined as compared to PBS *<0.05, **p<0.01, ***p<0.001.
We next examined the impact of CCL3 topical treatment on leukocyte migration by H&E staining, and on leukocyte activation by myeloperoxidase (MPO) measurements by ELISA. (MPO is primarily used as a marker for neutrophil activation but it can also be expressed to lesser extent in macrophages).

MRSA = assay: Normal wound model of MRSA infection; assay type: in vivo; conditions: FIG. 6B
Method: as §2
as §3, with “follows. For wound surgical procedure, a sterile biopsy punch (5-7 mm diameter) is used to punch through the full thickness of the back skin below the shoulder blades.” for “follows.”

## NC[C@H]1O[C@H](O[C@H]2[C@H](O)[C@@H](O[C@H]3O[C@H](CO)[C@@H](O)[C@H](N)[C@H]3O)[C@H](N)C[C@@H]2N)[C@H](N)C[C@@H]1O [tobramycin]
P. aeruginosa PA103 [1]
  bacterial loads on implants as compared to implants treated with immunomodulators: significantly higher
P. aeruginosa PA103 [2]; C57BL/6 mice, 3.5 mg/kg i.p. 1 h before 10^6 CFU PA103, 24 h following infection, FIG. 15B
  infection levels in wound tissues after prophylaxis antibiotic: effective

## CN[C@H](CC(C)C)C(=O)N[C@H]1C(=O)N[C@@H](CC(N)=O)C(=O)N[C@H]2C(=O)N[C@H]3C(=O)N[C@H](C(=O)N[C@H](C(=O)O)c4cc(O)cc(O)c4-c4cc3ccc4O)[C@H](O)c3ccc(c(Cl)c3)Oc3cc2cc(c3O[C@@H]2O[C@H](CO)[C@@H](O)[C@H](O)[C@H]2O[C@H]2C[C@](C)(N)[C@H](O)[C@H](C)O2)Oc2ccc(cc2Cl)[C@H]1O [vancomycin]
USA300 MRSA; C57BL/6 mice, prophylaxis antibiotic i.p. 1 h before 10^6 CFU USA300, 24 h following infection, FIG. 15A
  infection levels at implant surgical site (Tissue & Implant) or a distant site (Spleen): effective
USA300 MRSA; prophylaxis vancomycin 40 mg/kg i.p., FIG. 15A & 2C
  bacterial loads on implants as compared to implants treated with immunomodulators: significantly higher

## Granulocyte-macrophage colony-stimulating factor [GM-CSF]
leukocytes
  leukocyte migration and neutrophil activation in a normal wound: enhances
P. aeruginosa PA103 [2]; C57BL mice, 10^6 PA103, systemic 10 μg/kg i.p. 1 h prior to surgery, 24 h, FIG. 2B
  PA103 infection in wounds as compared to PBS-treated wounds: significantly reduce
P. aeruginosa PA103 [2]; systemic GM-CSF 10 μg/kg i.p., FIG. 2B
  reduction of PA103 infection in wounds, compared with CCL3 or tobramycin: not as effective

## IL-1β: pro-inflammatory cytokine interleukin-1 (SEQ ID NO: 11, precursor)
MRSA
  controlling MRSA infection in normal wound model: effective
P. aeruginosa PA103 [2]; C57B mice, immunomodulator added locally at time of infection, compared to PBS, FIGS. 3A, 4A, 4B, 6A
  infection control against P. aeruginosa PA103 in normal wounds: effective
